Laboratory results: patent US5149631A, “Compound marked with tritium, its preparation and its use in the location of nuclear receptors of retinoids” (Centre International de Recherches Dermatologiques Galderma …, priority 1989, dated 1992)

How the values were obtained:
[1] = system: retinoic acid nuclear receptors (RARs); assay: Fixing on nuclear receptors RARs in nucleosol of F9 cells, analysed by HPSEC; format: binding, murin; conditions: for molecules of ligand fixed to the RARs per cell (HPSEC peak surface standardized to number of cells): F9 cells, 20 nM tritiated ligand
Method: Cultures of F9 cells of murin embryonic carcinoma (normally four 90 mm dishes containing in total 4-7×10^7 cells per incubation condition) were washed once with pBS (saline phosphate buffer) and incubated for 3 hours in a medium, without serum, supplemented with the marked retinoic homolog (to verify the specifity). The cells were then detached with a trypsin-EDTA mixture and numbered with a Burker hemocytometer. […] 50 μl of marked extract were injected on a 9×250 mm GF 250 column (Dupont de Nemours). The elution was carried out in a buffer 0.3M KH2 PO4, pH 7.8 at a rate of 1 ml/min. The protein content was followed by measuring the optical density at 280 nm. 28 fractions of 0.3 ml each were collected and counted in Picofluor (Packard) scintillating agent. For each retinoid concentration, the number of bonded molecules was determined using the surface of the radioactivity peak and the calculated concentration of demisaturation (C50). The molecular weight calibration of the column was carried out using human albumin (67 kDa), ovalbumin (45 kDa) and myoglobin (16.8 kDa). The dose-response curves and the competition curves were analyzed on a computer through nonlinear regression using the various forms of the Clark equation.

[2] = molecular target: T1, CRABP (cellular retinoic acid binding protein) (Rattus norvegicus, UniProt P62966); assay: Direct fixing on CRABP binding protein in rat testicle cytosol, Sephadex G25 separation
T1 construct: rat testicle cytosol containing CRABP; from tissue; host or cells: rat testicle homogenate / cytosol
Method: The difference ( -- ) represents the specific bond.
The total fixing non-specific+specific ( .circle.-- .circle.) is obtained by incubation of increasing concentration (up to a maximum of […]) of the claimed compound with a constant quantity (0.3 ml) of a rat testicle homogenate (CRABP-rich organ). The non-specific fixing of the tritiated compound is determined in parallel, by measuring the fixing with increasing concentrations of the radioactive ligand in the presence of a large excess (1 μm) of cold homolog ligand (.quadrature.--.quadrature.). An incubation time of two hours is necessary for the establishment of balanced conditions.
The elution is done directly in scintillation tubes and the radioactivity is measured by counting.
The difference between the total fixing curve ( .circle.-- .circle.) and non-specific fixing (.quadrature.--.quadrature.) gives the specific fixing curve ( -- ). Analysis of this curve provides the dissociation constant at equilibrium (Kd) which is the concentration of the product required for 50% saturation of CRABP. This constant is a measurement of the affinity of the ligand for its bonding protein, Kd being inversely proportional to affinity (the smaller the Kd, the greater the affinity).

T1 sequence (P62966 whole entry): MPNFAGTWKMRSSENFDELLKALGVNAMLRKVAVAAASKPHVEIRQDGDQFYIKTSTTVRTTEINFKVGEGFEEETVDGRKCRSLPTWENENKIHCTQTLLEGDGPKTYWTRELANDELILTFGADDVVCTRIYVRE

Row | SMILES | specificity of fixing on RARs (about 45 kDa radioactivity peak) ([1]; F9 cells incubated with 20 nM tritiated ligand, co-incubation with an excess of 1000 times of cold compound I) | molecules of ligand fixed to the RARs per cell (HPSEC peak surface standardized to number of cells) [1] | specific fixing on CRABP ([2]; rat testicle homogenate, increasing concentrations of tritiated ligand, with or without 1 μm cold homolog ligand, two hours incubation) | fixing on RARs in the presence of excess cold ligand ([1]; F9 cells incubated with 20 nM tritiated retinoic acid, excess of 100 times of cold retinoic acid) | nature of the specific fixing on CRABP ([2]; rat testicle cytosol) | non-specific fixing as share of the total fixing ([2]; rat testicle cytosol, in the range of concentrations employed)
1 | [3H]c1cc(-c2ccc3cc(C(=O)O)ccc3c2[3H])cc(C23CC4CC(CC(C4)C2)C3)c1OC [Example 1, 6-[3-(1-adamantyl)-4-methoxyphenyl]-2-naphthoic acid marked with tritium] | specific | approximately 4,000 molecules per cell | no specific fixing | – | – | –
2 | CC1=C(/C=C/C(C)=C/C=C/C(C)=C/C(=O)O)C(C)(C)CCC1 [retinoic acid] | – | approximately 4,000 molecules per cell | – | inhibited | saturable and reversible | less than 20%
